According to PubChem BioAssay AID2060611 (Molecular Pharmacology Branch, DTP, NCI, 2025):
pIC50: −log10 of the molar value.

System: 628569-122-R-J1-PDC complex spheroid viability
Assay: Anticancer human tumor 628569-122-R-J1-PDC patient-derived head and neck squamous carcinoma cell line growth inhibition [CLK]
Conditions: for pIC50: curve of first compound; for viability, T/C: stronger effect = lower value
Method in brief: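 Patient-derived tumor cells grown as complex spheroids with HUVEC endothelial cells and mesenchymal stem cells, treated with drug combinations. Concentrations descend in half-log steps from near clinical Cmax, or from 10 microM if Cmax unknown.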

[1] = second compound 0.0316 µM, first compound 0.0316 µM
[2] = second compound 0.0316 µM, first compound 0.1 µM
[3] = second compound 0.0316 µM, first compound 0.316 µM
[4] = second compound 0.0316 µM, first compound 1 µM
[5] = second compound 0.1 µM, first compound 0.0316 µM
[6] = second compound 0.1 µM, first compound 0.1 µM
[7] = second compound 0.1 µM, first compound 0.316 µM
[8] = second compound 0.1 µM, first compound 1 µM
[9] = second compound 0.316 µM, first compound 0.0316 µM
[10] = second compound 0.316 µM, first compound 0.1 µM
[11] = second compound 0.316 µM, first compound 0.316 µM
[12] = second compound 0.316 µM, first compound 1 µM
[13] = second compound 1 µM, first compound 0.0316 µM
[14] = second compound 1 µM, first compound 0.1 µM
[15] = second compound 1 µM, first compound 0.316 µM
[16] = second compound 1 µM, first compound 1 µM
[17] = second compound 3.16 µM, first compound 0.0316 µM
[18] = second compound 3.16 µM, first compound 0.1 µM
[19] = second compound 3.16 µM, first compound 0.316 µM
[20] = second compound 3.16 µM, first compound 1 µM
[21] = second compound 10 µM, first compound 0.0316 µM
[22] = second compound 10 µM, first compound 0.1 µM
[23] = second compound 10 µM, first compound 0.316 µM
[24] = second compound 10 µM, first compound 1 µM
[25] = second compound 0.0316 µM, first compound 3.16 µM
[26] = second compound 0.0316 µM, first compound 10 µM
[27] = second compound 0.1 µM, first compound 3.16 µM
[28] = second compound 0.1 µM, first compound 10 µM
[29] = second compound 0.316 µM, first compound 3.16 µM
[30] = second compound 0.316 µM, first compound 10 µM
[31] = second compound 1 µM, first compound 3.16 µM
[32] = second compound 1 µM, first compound 10 µM
[33] = second compound 3.16 µM, first compound 3.16 µM
[34] = second compound 3.16 µM, first compound 10 µM
[35] = second compound 10 µM, first compound 3.16 µM
[36] = second compound 10 µM, first compound 10 µM
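Also: spheroids exposed to agents for seven days before readout.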
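For viability, T/C in this document: 100% = DMSO vehicle control viability.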

CCc1c2c(nc3ccc(O)cc13)-c1cc3c(c(=O)n1C2)COC(=O)[C@]3(O)CC + CN1CCN(c2cc(C(=O)Nc3cc4cc(-c5cnn(C)c5)ccc4cn3)ccn2)CC1
pIC50 (second compound 0.0316 µM): 7.04
pIC50 (second compound 0.1 µM): 6.97
pIC50 (second compound 0.316 µM): > 8.50
pIC50 (second compound 1 µM): > 8.50
pIC50 (second compound 3.16 µM): > 8.50
pIC50 (second compound 10 µM): > 8.50
viability, T/C (second compound 0.0316 µM, first compound 0.00316 µM): 61.5%
viability, T/C (second compound 0.0316 µM, first compound 0.01 µM): 53.1%
viability, T/C [1]: 50.2%
viability, T/C [2]: 52.2%
viability, T/C [3]: 35.8%
viability, T/C [4]: 9.26%
viability, T/C (second compound 0.1 µM, first compound 0.00316 µM): 50.9%
viability, T/C (second compound 0.1 µM, first compound 0.01 µM): 49.9%
viability, T/C [5]: 47.9%
viability, T/C [6]: 58.3%
viability, T/C [7]: 23.7%
viability, T/C [8]: 5.24%
viability, T/C (second compound 0.316 µM, first compound 0.00316 µM): 40.4%
viability, T/C (second compound 0.316 µM, first compound 0.01 µM): 36.4%
viability, T/C [9]: 15%
viability, T/C [10]: 9.88%
viability, T/C [11]: 4.62%
viability, T/C [12]: 6.11%
viability, T/C (second compound 1 µM, first compound 0.00316 µM): 5.48%
viability, T/C (second compound 1 µM, first compound 0.01 µM): 4.65%
viability, T/C [13]: 8.79%
viability, T/C [14]: 7.58%
viability, T/C [15]: 5.31%
viability, T/C [16]: 2.58%
viability, T/C (second compound 3.16 µM, first compound 0.00316 µM): 9.55%
viability, T/C (second compound 3.16 µM, first compound 0.01 µM): 6.32%
viability, T/C [17]: 5.67%
viability, T/C [18]: 8.5%
viability, T/C [19]: 4.73%
viability, T/C [20]: 2.6%
viability, T/C (second compound 10 µM, first compound 0.00316 µM): 1.57%
viability, T/C (second compound 10 µM, first compound 0.01 µM): 2.38%
viability, T/C [21]: 4%
viability, T/C [22]: 4.91%
viability, T/C [23]: 3.1%
viability, T/C [24]: 0.67%

CC(Nc1ccc2c(c1)OCCn1cc(N3C(=O)OCC3C(F)F)nc1-2)C(N)=O (stereo unspecified) + CN1CCN(c2cc(C(=O)Nc3cc4cc(-c5cnn(C)c5)ccc4cn3)ccn2)CC1
pIC50 (second compound 0.0316 µM): 6.36
pIC50 (second compound 0.1 µM): 7.49
pIC50 (second compound 0.316 µM): > 7.50
pIC50 (second compound 1 µM): > 7.50
pIC50 (second compound 3.16 µM): > 7.50
pIC50 (second compound 10 µM): > 7.50
viability, T/C [1]: 76.2%
viability, T/C [2]: 71.2%
viability, T/C [3]: 50.8%
viability, T/C [4]: 41%
viability, T/C [25]: 28.9%
viability, T/C [26]: 23.2%
viability, T/C [5]: 51.8%
viability, T/C [6]: 44%
viability, T/C [7]: 36.4%
viability, T/C [8]: 41.6%
viability, T/C [27]: 23.2%
viability, T/C [28]: 17.8%
viability, T/C [9]: 26.9%
viability, T/C [10]: 20.5%
viability, T/C [11]: 13.6%
viability, T/C [12]: 13.5%
viability, T/C [29]: 8.04%
viability, T/C [30]: 5.9%
viability, T/C [13]: 7.59%
viability, T/C [14]: 8.7%
viability, T/C [15]: 6.98%
viability, T/C [16]: 8.35%
viability, T/C [31]: 6.35%
viability, T/C [32]: 5.58%
viability, T/C [17]: 7.77%
viability, T/C [18]: 7.38%
viability, T/C [19]: 6.16%
viability, T/C [20]: 6.78%
viability, T/C [33]: 7.18%
viability, T/C [34]: 6.1%
viability, T/C [21]: 6.06%
viability, T/C [22]: 4.09%
viability, T/C [23]: 2.84%
viability, T/C [24]: 6.87%
viability, T/C [35]: 3.27%
viability, T/C [36]: 2.51%

O=c1[nH]cc(F)c(=O)[nH]1 + CNC(=O)c1ccc(Nc2nc(OC3CCCC3)c3c(-c4ccc5nc(C)oc5c4)c[nH]c3n2)c(OC)c1
pIC50 (second compound 0.0316 µM): < 5.00
pIC50 (second compound 0.1 µM): < 5.00
pIC50 (second compound 0.316 µM): < 5.00
pIC50 (second compound 1 µM): > 7.50
pIC50 (second compound 3.16 µM): > 7.50
pIC50 (second compound 10 µM): > 7.50
viability, T/C [1]: 108%
viability, T/C [2]: 99.2%
viability, T/C [3]: 101%
viability, T/C [4]: 84.8%
viability, T/C [25]: 72.9%
viability, T/C [26]: 60.6%
viability, T/C [5]: 59.1%
viability, T/C [6]: 52.6%
viability, T/C [7]: 62.2%
viability, T/C [8]: 52.7%
viability, T/C [27]: 60.4%
viability, T/C [28]: 49.8%
viability, T/C [9]: 50.9%
viability, T/C [10]: 60.5%
viability, T/C [11]: 52.4%
viability, T/C [12]: 54%
viability, T/C [29]: 60.3%
viability, T/C [30]: 47.8%
viability, T/C [13]: 43.5%
viability, T/C [14]: 50.4%
viability, T/C [15]: 41.6%
viability, T/C [16]: 52.3%
viability, T/C [31]: 54.7%
viability, T/C [32]: 47.7%
viability, T/C [17]: 44.9%
viability, T/C [18]: 44.9%
viability, T/C [19]: 48.8%
viability, T/C [20]: 48.8%
viability, T/C [33]: 48.8%
viability, T/C [34]: 35.6%
viability, T/C [21]: 45.4%
viability, T/C [22]: 37.9%
viability, T/C [23]: 46%
viability, T/C [24]: 46%
viability, T/C [35]: 47.5%
viability, T/C [36]: 45.3%
